PubChem BioAssay (NCI)
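In this assay, cells in 96-well plates receive the compound at five concentrations for 48 hours. Endpoints are linearly interpolated between the surrounding concentrations. GI50 is the concentration that inhibits growth by half. TGI: total growth inhibition.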 Where a SMILES comes first, the peptide text is derived from it. [ ]: non-standard residue; d: D form. The star is where a group is joined. ξ: configuration not given here. NMeN = CN[C@@H](CC(N)=O)C(=O)O; NMeV = CN[C@H](C(=O)O)C(C)C; ξNMeV = CNC(C(=O)O)C(C)C; Boc = CC(C)(C)OC(=O)*; ξNMeA = CNC(C)C(=O)O

test system: HOP-18 NSCLC; test: NCI-60 cell line screen, 48 h

Row | SMILES | TGI | GI50
1 | CC(=O)/C(=C\C1=CCCO1)C(=O)Nc1ccccc1C | > 100 µM | 
2 | CC/C(=C(/CC)c1ccc(O)cc1)c1ccc([O-])cc1.CC/C(=C(/CC)c1ccc(O)cc1)c1ccc([O-])cc1.O=C([CH-]C(=O)c1ccccc1)c1ccccc1.O=C([CH-]C(=O)c1ccccc1)c1ccccc1.[Ti+4] | 39.3 µM | 24.4 µM
3 | COC(=O)C(C)N(C)C(=O)[C@H](CC(N)=O)N(C)C(=O)[C@@H]1CCCN1C(=O)[C@H](C(C)C)N(C)C(=O)C(C(C)C)N(C)C(=O)[C@@H](NC(=O)OC(C)(C)C)C(C)C (some centres undefined) (Boc-V[ξNMeV][NMeV]P[NMeN][ξNMeA]-OMe) | > 100 µM | 
4 | O=C1NC2CCC(C2)C1c1ccccc1 (centres undefined) | > 100 µM | 
5 | CCN(CC)CCNC(=O)c1nn(C)c(=S)[nH]c1=S | > 100 µM | 
6 | Nc1nc(=S)[nH]c(C(=O)Nc2ccc(Cl)c(Cl)c2)c1-c1ccc(Cl)cc1 | > 100 µM | 
7 | C[C@]12CC[C@H](OCCC#N)CC1=CC[C@@H]1C2CC[C@]2(C)/C(=N/OCCC#N)CCC12 (some centres undefined) | > 100 µM | 
8 | Cc1cccc(C)c1NC(=O)CCc1nnc2s/c(=C\c3ccc(Cl)cc3)c(=O)n12 | > 100 µM | 
9 | CN(C)CC/C(=N\Nc1ccccc1)c1ccccc1 | > 100 µM | 
10 | O=C1c2ccccc2C2(O)NC(=S)N(c3ccccc3)C12O (centres undefined) | > 100 µM | 
11 | CCC[CH2][Sn]([CH2]CCC)([O]C(=O)C(N)CSC)[O]C(=O)C(N)CSC (centres undefined) | 21.8 µM | 10.2 µM
12 | COc1cc(C(=O)C/C(CCC(=O)Nc2ccc(Cl)cc2C)=N/NC(=O)C(N)=O)ccc1O | > 100 µM | 
13 | CCCCc1ccc(-n2c3nc(=O)n(C)c(=O)c-3nc3ccccc32)cc1 | 22.7 µM | 
14 | NC1CCCCC1N.O=S(=O)([O-])CCCN1CCOCC1.O=S(=O)([O-])CCCN1CCOCC1.[Pt+4] | > 89.2 µM | 16 µM
15 | CCCCCCCCCCC(O)C1CCC(C(O)CCC(O)C2CCC(CCCCCCC[C@H](O)CC3=C[C@@H](C)OC3=O)O2)O1 (some centres undefined) | > 100 µM | 
16 | COC1OC(C)C(O)CC1OS(=O)(=O)c1ccc(C)cc1 (centres undefined) | > 100 µM | 
17 | CCOC(=O)C1=C(Nc2ccc(Cl)cc2Cl)OC/C1=N\NS(=O)(=O)c1ccc(C)cc1 | > 100 µM | 
18 | CCc1nc(N)nc(C(=O)NCCNC(=O)c2nc(N)nc(CC)c2C)c1C | > 100 µM | 
19 | Nc1ncn(C2C=C(CO)C(O)C2O)c(=O)n1 (centres undefined) | > 100 µM | 
20 | O=c1[nH]c2c3ccccc3ccc2c2cc3c(cc12)OCO3 | > 100 µM | 
21 | CCn1c(O)c(C=N)c(=O)n(CC)c1=O | > 100 µM | 
